Key:
Type in all cases: cell-based, human
U2OS cells [1] = test: Cell-cycle distribution by flow cytometry
Description: Since p53 plays a central role in activation of the G1 checkpoint, and influences S, G2, and M checkpoints as well (Giaccia and Kastan, Genes & Development 12:2973-2983 (1998); Ko and Prives, supra, 1996), a functional deficiency of ATX might alter the cell-cycle arrest responses to IR and other genotoxic agents. To test this possibility, U2OS cells were pre-treated with S or AS oligonucleotides, exposed to IR, and cell-cycle distributions at 24 h post-irradiation were determined.
The G2 checkpoint inhibitor was added to the culture medium at 8 h prior to harvest for determination of cell-cycle distributions (FIG. 3E, left panel), and immunoblotting for ATX expression (right panel).

U2OS cells [2] = test: Clonogenic survival assay of oligonucleotide-transfected cells
Description: To address concerns related to potential non-specific effects of ATXKI expression on cellular functions, an antisense oligonucleotide-based approach to reduce the level of ATX expression in U2OS cells was developed. The cells were mock transfected, or transfected with sense (S) or antisense (AS) oligonucleotides, and then treated for 24 h with various genotoxic agents. The cells were then trypsinized and replated, and clonogenic survival was analyzed after 10 days in culture. The results obtained with AS-treated cells were strikingly similar to those obtained with the ATXKI-expressing cells (FIGS. 2A-C). While transfection of U2OS cells with the S oligonucleotide reduced the basal level of colony outgrowth by 25%, treatment with the AS oligonucleotide decreased basal clonogenic activity by 75% (FIG. 2C, right panel). […] The reduction in ATX protein caused by AS treatment ranged from 50-90% in over 10 independent trials.
To prepare recombinant HA-tagged ATX and ATM proteins, HEK 293T cells were plated onto 60-mm dishes (9×10^5 cells per dish), and were transfected with 5 μg pcDNA3.1 (empty vector), HA-ATXWT, HA-ATXKI, or HA-ATMWT plasmid DNAS. Transfections were performed with the Fugene 6 transfection reagent (Roche), according to the manufacturer's instructions. For NMD assays (see Example 9, below), U2OS cells were seeded onto 100 mm dishes (1×10^6 cells per dish). […]
U2OS cells were seeded into 60 mm dishes (1×10^5 cells per dish) in complete medium. […] To quantitate the outgrowth of drug-resistant cells, the Coomassie Blue-bound protein was solubilized at 37° C. with 0.1 M NaOH, and the soluble material was analyzed by absorbance spectroscopy at a wavelength of 590 nm. […] Drug-resistant colonies were stained with Coomassie Blue after 10 days in culture, and the samples were analyzed with Image Pro Plus software to quantitate cell density. […]

hChk2 = test: IR-dependent phosphorylation of hChk2; settings: U2OS
Text: Recent findings point toward ATM as a critical upstream regulator of the activity of the checkpoint kinase, hChk2, in IR-damaged cells (Ahn et al., Cancer Res. 60:5934-5936 (2000); Melchionna et al., Nat. Cell Biol. 2:762-765 (2000)). To determine whether ATX was also involved in hChk2 activation, the effect of AS oligonucleotide treatment on the IR-dependent phosphorylation of hChk2 was examined. […] Moreover, the differential effects of AS treatment on p53 expression versus hChk2 activation argue against the possibility that AS exposure leads to nonspecific inhibition of checkpoint signaling responses to IR-induced DNA damage.

5′-AGCAAGCTCCCTCCTGTCTC-3′ (all phosphorothioate, sugars by position and methylation of C not given here) [AS oligonucleotide, ATX antisense phosphorothioate oligonucleotide complementary to ATX nucleotides 210-229]
cell-cycle distribution after IR exposure (U2OS cells [1]; 24 h post-irradiation): arrested primarily in G2/M phase
subpopulation with <2N DNA content (apoptotic cells) (U2OS cells [1]; no IR): increased subpopulation
cell-cycle distribution in the absence of IR (U2OS cells [1]; no IR, versus S oligonucleotide): reduction in the percentage of G1 phase cells, and a concomitant accumulation of G2/M phase cells
sensitivity to suppressive effects of IR and UV on clonogenic survival (U2OS cells [2]; IR and UV treatments): significantly more sensitive
decrease of basal level of colony outgrowth (basal clonogenic activity) (U2OS cells [2]; non-irradiated, 10 days in culture): 75%
IR-dependent phosphorylation of hChk2 (hChk2): retained the ability to phosphorylate hChk2

Reference: patent US20030228675A1, “ATM related kinase ATX, nucleic acids encoding same and methods of use” (priority 2002, published 2003)
